Common to all, as to test: competitive isoTOP-ABPP, MDA-MB-231 soluble proteome
Assay type in all cases: binding

One assay has as its target T1, CCT8 (Homo sapiens, UniProt P50990).
T1 construct: directly in native proteomes; endogenous in cells; host or cells: MDA-MB-231
T1 sequence (P50990 1-548): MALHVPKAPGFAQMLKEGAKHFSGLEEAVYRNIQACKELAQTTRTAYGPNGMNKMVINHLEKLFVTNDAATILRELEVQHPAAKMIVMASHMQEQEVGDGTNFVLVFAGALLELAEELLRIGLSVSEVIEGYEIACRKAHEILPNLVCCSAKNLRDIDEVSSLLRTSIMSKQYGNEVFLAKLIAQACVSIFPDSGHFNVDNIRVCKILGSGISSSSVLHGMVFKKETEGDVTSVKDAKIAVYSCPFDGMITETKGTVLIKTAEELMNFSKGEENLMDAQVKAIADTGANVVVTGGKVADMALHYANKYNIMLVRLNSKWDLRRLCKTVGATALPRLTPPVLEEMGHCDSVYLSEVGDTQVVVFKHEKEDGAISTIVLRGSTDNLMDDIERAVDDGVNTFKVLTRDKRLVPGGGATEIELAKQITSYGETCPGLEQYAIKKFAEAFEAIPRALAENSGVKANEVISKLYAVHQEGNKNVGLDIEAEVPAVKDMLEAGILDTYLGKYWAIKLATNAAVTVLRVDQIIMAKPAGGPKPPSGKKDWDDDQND
The settings on record: 100 μM LDE, 60 min; peptide IAVYSC*PFDGMITETK
On the procedure: (§1) Here, we envisioned that isoTOP-ABPP could be advanced to discover and quantify reactions between cysteines in proteomes and any electrophilic compound. In this advanced, ‘competitive’ version of isoTOP-ABPP (FIG. 1a), a proteome is treated with an electrophile (experimental sample) or DMSO (control sample). Both proteomic samples are then labeled with the IA probe and conjugated by CuAAC to light and heavy azide-biotin tags, respectively. The light and heavy samples are then mixed and subjected to our described isoTOP-ABPP protocol for enrichment, identification, and quantification of IA-labeled cysteines^30. Electrophile-modified cysteines are quantified by measuring the MS1 chromatographic peak ratios (R values) for heavy (DMSO-treated) over light (electrophile-treated) samples, with higher R values reflecting greater sensitivity to the electrophile. In this format, competitive isoTOP-ABPP can assay electrophiles against 1000+ cysteines in parallel directly in native proteomes without requiring any chemical modification to the electrophiles themselves.
(§2) Competitive isoTOP-ABPP experiments were performed in quadruplicate using the soluble proteome of the human breast cancer cell line MDA-MB-231 cell line. Proteomes were treated with 100 μM HNE, 15d-PGJ2, or 2-HD, for 60 minutes, followed by the IA-probe (100 μM, 60 min) A total of ˜1400 cysteine reactivities were quantified across the aggregate data set, with at least 900 cysteine reactivities quantified for each LDE (FIG. 2a) more than 750 of which were quantified for all the three electrophiles.
(§3) HNE was purchased from EMD biosciences, 15d-PGJ2 was purchased from Cayman Chemicals and 2-HD was purchased from Santa Cruz Biotechnology. Proteome samples were diluted to a 4 mg protein/mL solution in PBS. For each profiling experiment, one aliquot of the proteome sample (0.5 mL) was treated with 100 μM of LDE using 5 μL of a 10 mM stock and the other aliquot was treated with 5 μL of either ethanol (for HNE and 15d-PGJ2) or DMSO (for 2-HD) as control. For the concentration-dependent profiling experiments using HNE, aliquots of the proteomes (0.5 mL each) were treated with 5, 10, 50, 100 and 500 μM of HNE using 5 μL of 0.5, 1.0, 5, 10 and 50 mM of stock solution, respectively. After 60 minutes of treatment at room temperature, both the LDE-treated and control aliquots were passed through a NAP-5 Sephadex column (GE healthcare) to remove any unreacted LDE. The volume of each aliquot was increased to 1 mL with the concentration at 2 mg/mL after this step.
(§4) Each of the control and LDE-treated proteome samples (˜2 mg protein/mL in 1 mL volume) was treated with 100 μM of IA-probe using 10 μL of a 10 mM stock in DMSO. The labeling reactions were incubated at room temperature for 1 hour. Click chemistry (acetylene-azide cycloaddition) was performed by the addition of 100 μM of either the Heavy-TEV-Tag (for the control sample) or Light-TEV-Tag (for the LDE-treated sample) (20 μL of a 5 mM stock), 1 mM TCEP (fresh 50× stock in water), 100 μM ligand (17× stock in DMSO:t-Butanol 1:4) and 1 mM CuSO4 (50× stock in water). Samples were allowed to react at room temperature for 1 hour. After the click chemistry step, the light and heavy-labeled samples were mixed together and centrifuged (5900×g, 4 min, 4° C.) to pellet the precipitated proteins.
(§5) The pellets were washed twice in cold MeOH, after which the pellet was solubilized in PBS containing 1.2% SDS via sonication and heating (5 min, 80° C.). Samples were subjected to streptavidin enrichment of probe-labeled proteins, sequential on-bead trypsin and TEV digestion, and liquid chromatography-mass spectrometry (LC-MS) analysis according to the published isoTOP-ABPP protocol^30.
(§6) IA-probe labeled peptides were identified by SEQUEST2 and DTASelect3, and the quantification of heavy/light ratios (isoTOP-ABPP ratios, R) was performed by an in-house software (CIMAGE) as previously described. […]

The target in a further assay is T2, RPL23 (Homo sapiens, UniProt P62829).
T2 construct: directly in native proteomes; endogenous in cells; host or cells: MDA-MB-231
To be noted: 100 μM LDE, 60 min; peptide ISLGLPVGAVINC*ADNTGAK. On the procedure:
as §1, §2, §3, §4, §5, §6

For another assay, the target named is T3, REEP5 (Homo sapiens, UniProt Q00765).
T3 construct: directly in native proteomes; endogenous in cells; host or cells: MDA-MB-231
T3 sequence (Q00765 whole entry): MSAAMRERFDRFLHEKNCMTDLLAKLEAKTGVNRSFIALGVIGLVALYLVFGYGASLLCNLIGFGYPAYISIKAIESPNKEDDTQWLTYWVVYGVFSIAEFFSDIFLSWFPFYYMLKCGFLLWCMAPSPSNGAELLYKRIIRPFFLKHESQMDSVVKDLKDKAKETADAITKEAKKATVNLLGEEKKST
The settings on record: 100 μM LDE, 60 min; peptide NC*MTDLLAK. The method, then:
as §1, §2, §3, §4, §5, §6

For a further assay, the target named is T4, MAPK9 (Homo sapiens, UniProt P45984).
T4 construct: directly in native proteomes; endogenous in cells; host or cells: MDA-MB-231
T4 sequence (P45984 whole entry): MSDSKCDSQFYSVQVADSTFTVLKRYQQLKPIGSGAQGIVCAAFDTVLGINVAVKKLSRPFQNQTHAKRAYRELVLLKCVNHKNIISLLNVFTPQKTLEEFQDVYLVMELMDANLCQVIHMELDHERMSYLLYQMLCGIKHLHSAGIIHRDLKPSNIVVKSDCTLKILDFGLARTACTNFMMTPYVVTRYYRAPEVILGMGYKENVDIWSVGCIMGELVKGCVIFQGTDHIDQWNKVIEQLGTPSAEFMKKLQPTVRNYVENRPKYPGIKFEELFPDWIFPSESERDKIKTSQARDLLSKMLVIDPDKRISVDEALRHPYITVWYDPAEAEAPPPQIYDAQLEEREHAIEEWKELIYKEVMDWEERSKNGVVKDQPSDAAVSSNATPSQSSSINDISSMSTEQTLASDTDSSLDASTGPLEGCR
The settings on record: 100 μM LDE, 60 min; peptide TLEEFQDVYLVMELMDANLC*QVIHMELDHER
The method, then:
as §1, §2, §3, §4, §5, §6

Another assay has as its target T5, HPCA (Homo sapiens, UniProt P84074).
T5 construct: directly in native proteomes; endogenous in cells; host or cells: MDA-MB-231
To be noted: 100 μM LDE, 60 min; peptide LLQC*DPSSASQF
The method, then:
as §1, §2, §3, §4, §5, §6

Turning to `CCCCCCCCCCCCC/C=C/C=O` [2-HD, 2-trans-hexadecenal], the “R value (isoTOP-ABPP ratio heavy/light) for IA-labeled cysteine of CCT8” value at CCT8 is recorded as 1.06. Besides, the “R value (isoTOP-ABPP ratio heavy/light) for IA-labeled cysteine of RPL23” value at RPL23 was found to be 1.87. Also, on REEP5, the “R value (isoTOP-ABPP ratio heavy/light) for IA-labeled cysteine of REEP5” value amounted to 1.18. Besides, on MAPK9, the “R value (isoTOP-ABPP ratio heavy/light) for IA-labeled cysteine of MAPK9” value came out at 1.14. For the same compound, the “R value (isoTOP-ABPP ratio heavy/light) for IA-labeled cysteine of HPCA” value at HPCA was 1.13.

As to `CCCCCC(O)/C=C/C=O` (stereo not drawn) [4-HNE, 4-Hydroxynonenal], on CCT8, the “R value (isoTOP-ABPP ratio heavy/light) for IA-labeled cysteine of CCT8” value is 1.14. The “R value (isoTOP-ABPP ratio heavy/light) for IA-labeled cysteine of RPL23” value at RPL23 was found to be 1.73. For the same compound, the “R value (isoTOP-ABPP ratio heavy/light) for IA-labeled cysteine of REEP5” value at REEP5 worked out at 7.08. At MAPK9, the “R value (isoTOP-ABPP ratio heavy/light) for IA-labeled cysteine of MAPK9” value amounted to 5.08. Also, the “R value (isoTOP-ABPP ratio heavy/light) for IA-labeled cysteine of HPCA” value at HPCA is 2.17.

As to `CCCCC/C=C/C=C1/C(=O)C=C[C@@H]1C/C=C\CCCC(=O)O` [PGJ2, 15-deoxy-Δ12,14-prostaglandin J2], the “R value (isoTOP-ABPP ratio heavy/light) for IA-labeled cysteine of CCT8” value at CCT8 is 7.75. Moreover, the “R value (isoTOP-ABPP ratio heavy/light) for IA-labeled cysteine of RPL23” value on RPL23 stood at 5.06. Moreover, on REEP5, the “R value (isoTOP-ABPP ratio heavy/light) for IA-labeled cysteine of REEP5” value is on record as 7.38. On MAPK9, the “R value (isoTOP-ABPP ratio heavy/light) for IA-labeled cysteine of MAPK9” value was determined as 1.78. Besides, the “R value (isoTOP-ABPP ratio heavy/light) for IA-labeled cysteine of HPCA” value at HPCA stood at 7.21.

These data come from patent US10782295B2, “Cysteine-reactive ligand discovery in proteomes” (THE SCRIPPS RESEARCH INSTITUTE, priority 2013, dated 2020).
